Consider three molecules from ChEMBL document CHEMBL5321279 (J Med Chem, 2023).

Calls of active or inactive are those of the source. Some results are limits rather than exact numbers.

As usually defined, the CC50 is the concentration that lowers cell viability or growth by half. The half-life is the time needed for the level to fall by half in the phase considered. What is called AUC is concentration integrated over time.

A short description of data set [1]: (§1) Cytotoxicity against quiescent human PBMC cells assessed as reduction in cell growth measured after 5 days by CellTiter-Glo assay. The format is toxicity, cell-based. As to conditions: quiescent PBMC, time 5 day.
Data set [2] in a line: (§2) Cytotoxicity against human primary hepatocytes assessed as reduction in cell growth measured after 5 days by CellTiter-Glo assay. The format is toxicity, cell-based, Hepatocyte. As to conditions: primary hepatocytes, time 5 day. (Cellular ATP, detected with luciferase, serves as a proxy for viable cell number.)
The nature of data set [3]: Stability of compound in rat gastrointestinal S9 fraction assessed as half life at pH 7.4 measured upto 120 mins by LC-MS/MS analysis. In kind it is ADME, subcellular, Gastrointestinal tract.
Data set [4] is described as follows: Stability of compound in human gastrointestinal S9 fraction assessed as half life at pH 7.4 measured upto 120 mins by LC-MS/MS analysis. The format is ADME, subcellular, Gastrointestinal tract.
The nature of data set [5]: Stability of compound in rat plasma assessed as half life measured upto 4 hrs by LC-MS/MS analysis. The format is ADME, cell-free.
A short description of data set [6]: Stability of compound in cynomolgus monkey liver S9 fraction assessed as half life at pH 7.4 measured upto 90 mins by LC-MS/MS analysis. The format is ADME, subcellular, Macaca fascicularis.
In data set [7] the target is T1, CES2 (cocaine esterase) (Homo sapiens, UniProt O00748).
T1 sequence (O00748 whole entry): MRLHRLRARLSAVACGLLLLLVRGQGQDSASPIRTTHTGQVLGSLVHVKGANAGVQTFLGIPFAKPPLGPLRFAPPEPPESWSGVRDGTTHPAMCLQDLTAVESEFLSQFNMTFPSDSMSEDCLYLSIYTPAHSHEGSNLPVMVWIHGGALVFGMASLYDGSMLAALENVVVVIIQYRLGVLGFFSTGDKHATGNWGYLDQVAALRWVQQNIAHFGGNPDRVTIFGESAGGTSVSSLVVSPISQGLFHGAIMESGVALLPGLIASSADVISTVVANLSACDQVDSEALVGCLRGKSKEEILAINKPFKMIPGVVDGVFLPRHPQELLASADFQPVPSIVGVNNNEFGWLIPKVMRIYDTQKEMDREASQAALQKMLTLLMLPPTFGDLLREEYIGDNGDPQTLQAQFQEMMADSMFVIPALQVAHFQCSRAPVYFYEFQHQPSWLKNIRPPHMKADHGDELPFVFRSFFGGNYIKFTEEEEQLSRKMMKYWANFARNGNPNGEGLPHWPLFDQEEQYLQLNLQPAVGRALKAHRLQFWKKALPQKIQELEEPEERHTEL
Description: Stability of compound assessed as human recombinant CES2-mediated compound hydrolysis by measuring half life at pH 7.4 using oseltamivir as substrate measured upto 120 mins by LC-MS/MS analysis. The format is ADME. The settings on record: recombinant CES2, pH 7.4, probe oseltamivir.

Data set [8] can be described thus: AUC(0 to 24 hrs) in African green monkey at 86.5 mg/kg, po measured upto 24 hrs by LC-MS/MS analysis. The format is ADME, organism-based. The arrangement: dose 86.5 mg/kg, time < 24 hrs, route po. The settings on record: chlorocebus sabaeus, in vivo.
Data set [9] is described as follows: Prodrug conversion in African green monkey assessed as Nucleotide triphosphate metabolite formation in lung at 60 mg/kg, po measured upto 24 hrs by LC-MS/MS analysis. In kind it is ADME, organism-based. The settings on record: chlorocebus aethiops, in vivo.
The test system of data set [10] is PBMC. The data set is described as §1. In kind it is toxicity, cell-based. The settings on record: pbmc, 120 h, time 5 day.
The subject of data set [11] is Hepatocyte. Described as §2. The settings on record: hepatocytes, 120 h, time 5 day. The format is toxicity, cell-based.
A short description of data set [12]: Half life in African green monkey assessed as prodrug conversion by measuring (2R,3R,4S,5R)-2-(4-aminopyrrolo[2,1-f][1,2,4]triazin-7-yl)-3,4-dihydroxy-5-(hydroxymethyl)tetrahydrofuran-2-carbonitrile at […], po measured upto 24 hrs by LC-MS/MS analysis. In kind it is ADME, organism-based. As to conditions: chlorocebus sabaeus, in vivo.
The nature of data set [13]: AUC(0 to 24 hrs) in African green monkey assessed as prodrug conversion by measuring (2R,3R,4S,5R)-2-(4-aminopyrrolo[2,1-f][1,2,4]triazin-7-yl)-3,4-dihydroxy-5-(hydroxymethyl)tetrahydrofuran-2-carbonitrile at […], po measured upto 24 hrs by LC-MS/MS analysis. The format is ADME, organism-based. The settings on record: chlorocebus sabaeus, in vivo.
The test system of data set [14] is SARS-CoV-2. Description: Antiviral activity against SARS-CoV-2 infected in African green monkey assessed as reduction in viral load in BALF at 60 to 120 mg/kg, po qd administered for 6 days starting from 8 hrs post infection by PFA assay. In kind it is functional, organism-based. The settings on record: Severe acute respiratory syndrome coronavirus 2, dose lower 60.0 mg/kg, dose upper […], time 6.0 day.

For data set [15], the system named is SARS-CoV-2. Description: Antiviral activity against SARS-CoV-2 infected in African green monkey assessed as reduction in viral genomic RNA load in throat swabs at 60 to 120 mg/kg, po qd administered for 2 days starting from 8 hrs post infection by RT-qPCR analysis. The format is functional, organism-based. The settings on record: Severe acute respiratory syndrome coronavirus 2, dose lower 60.0 mg/kg, dose upper […], time 2.0 day. For orientation: In qPCR the cycle at which signal appears reflects the starting amount.

Data set [16] has as its system SARS-CoV-2. As to the kind of experiment: Antiviral activity against SARS-CoV-2 infected in African green monkey assessed as reduction in viral genomic RNA load in throat swabs at 60 to 120 mg/kg, po qd administered for 6 days starting from 8 hrs post infection by RT-qPCR analysis. The format is functional, organism-based. As to conditions: Severe acute respiratory syndrome coronavirus 2, dose lower 60.0 mg/kg, dose upper […], time 6.0 day.

In data set [17] the test system is SARS-CoV-2. As to the kind of experiment: Antiviral activity against SARS-CoV-2 infected in African green monkey assessed as reduction in viral genomic RNA load in throat swabs at 120 mg/kg, po qd administered for 4 days starting from 8 hrs post infection by RT-qPCR analysis. As to conditions: Severe acute respiratory syndrome coronavirus 2, time 4.0 day. In kind it is functional, organism-based.

Data set [18] concerns SARS-CoV-2. As to the kind of experiment: Antiviral activity against SARS-CoV-2 infected in African green monkey assessed as reduction in viral titer in terminal respiratory tissue at 60 to 120 mg/kg, po qd administered for 6 days starting from 8 hrs post infection by PFA assay. As to conditions: Severe acute respiratory syndrome coronavirus 2, dose lower 60.0 mg/kg, dose upper […], time 6.0 day. The format is functional, organism-based.

In data set [19] the test system is SARS-CoV-2. Description: Antiviral activity against SARS-CoV-2 infected in African green monkey assessed as reduction in viral genomic RNA load in terminal respiratory tissue at 60 to 120 mg/kg, po qd administered for 6 days starting from 8 hrs post infection by RT-qPCR analysis. The format is functional, organism-based. The settings on record: Severe acute respiratory syndrome coronavirus 2, dose lower 60.0 mg/kg, dose upper […], time 6.0 day.

Data set [20] can be described thus: AUC(0 to 24 hrs) in African green monkey infected with SARS-CoV-2 assessed as prodrug conversion by measuring (2R,3R,4S,5R)-2-(4-aminopyrrolo[2,1-f][1,2,4]triazin-7-yl)-3,4-dihydroxy-5-(hydroxymethyl)tetrahydrofuran-2-carbonitrile at 60 mg/kg, po qd measured after 6 days by LC-MS/MS analysis. As to conditions: in vivo. The arrangement: time 6 day, dose 60 mg/kg, route po. The format is ADME, organism-based, Severe acute respiratory syndrome coronavirus 2.

Data set [21] in a line: AUC(0 to 24 hrs) in African green monkey at 20 mg/kg, iv measured upto 24 hrs by LC-MS/MS analysis. In kind it is ADME, organism-based. The arrangement: dose 20 mg/kg, time < 24 hrs, route iv. The settings on record: chlorocebus sabaeus, in vivo.
Data set [22] is described as follows: Prodrug conversion in African green monkey assessed as Nucleotide triphosphate metabolite formation in lung at 20 mg/kg, iv measured upto 24 hrs by LC-MS/MS analysis. In kind it is ADME, organism-based. The settings on record: chlorocebus aethiops, in vivo.
Data set [23] can be described thus: AUC(0 to 24 hrs) in rat at 5 mg/kg, po measured upto 24 hrs by LC-MS/MS analysis. The arrangement: dose 5 mg/kg, time < 24 hrs, route po. As to conditions: in vivo. In kind it is ADME, organism-based.
Data set [24] is described as follows: AUC(0 to 24 hrs) in cynomolgus monkey at 5 mg/kg, po measured upto 24 hrs by LC-MS/MS analysis. Also on record: dose 5 mg/kg, time < 24 hrs, route po. The format is ADME, organism-based, Macaca fascicularis. The settings on record: in vivo.
Data set [25] in a line: AUC(0 to 24 hrs) in African green monkey at 5 mg/kg, po measured upto 24 hrs by LC-MS/MS analysis. The settings on record: chlorocebus sabaeus, in vivo. The arrangement: time < 24 hrs, dose 5 mg/kg, route po. The format is ADME, organism-based.
Data set [26] is described as follows: AUC(0 to 24 hrs) in African green monkey infected with SARS-CoV-2 assessed as prodrug conversion by measuring (2R,3R,4S,5R)-2-(4-aminopyrrolo[2,1-f][1,2,4]triazin-7-yl)-3,4-dihydroxy-5-(hydroxymethyl)tetrahydrofuran-2-carbonitrile at 7.5 mg/kg, iv qd measured after 6 days by LC-MS/MS analysis. The settings on record: in vivo. The format is ADME, organism-based, Severe acute respiratory syndrome coronavirus 2. Also on record: dose 7.5 mg/kg, time 6 day, route iv.

For the molecule `CCC(CC)COC(=O)[C@H](C)N[P@](=O)(OC[C@H]1O[C@@](C#N)(c2ccc3c(N)ncnn23)[C@H](O)[C@@H]1O)Oc1ccccc1`, the CC50 at 120 h in data set [1] is > 20 µM; in data set [2], 2.5 µM.

Turning to `CC(C)C(=O)OC[C@H]1O[C@@](C#N)(c2ccc3c(N)ncnn23)[C@H](O)[C@@H]1O` [OBELDESIVIR], the half-life in [3] was > 2 min; in [4], < 2 min; in data set [5], < 3 min; in data set [7], < 2 min. In addition, the half-life at […] in data set [6] is < 2 min. Also, the AUC in data set [8] came out at 0.68 µM·h; in [13], 26.6 µM·h; in [20] it was 111 µM·h. In data set [9], the Drug metabolism is given as 0.31 nmol/g. In addition, the CC50 in data set [10] and in data set [11] was > 100 µM each time. Moreover, the t1/2 in data set [12] turned out to be 191 min. The result in data set [14], in data set [15], in [16], in data set [17], in [18] and in data set [19] was Active.

Turning to `N#C[C@@]1(c2ccc3c(N)ncnn23)O[C@H](CO)[C@@H](O)[C@H]1O` [GS-441524], the AUC in [21] was 147 µM·h; in data set [23], 3.97 µM·h; in data set [24], 1.67 µM·h; in [25] it was 3.15 µM·h; in data set [26], ~ 55 uM.hr. Also, the Drug metabolism in data set [22] is given as 0.23 nmol/g.
